Experiments:
Assay in all cases: relative viability (nuclei count vs DMSO), 5 days (fraction); higher = more cells survive
R406 + Palbociclib = compound: COc1cc(Nc2ncc(F)c(Nc3ccc4c(n3)NC(=O)C(C)(C)O4)n2)cc(OC)c1OC [R406] + CC(=O)c1c(C)c2cnc(Nc3ccc(N4CCNCC4)cn3)nc2n(C2CCCC2)c1=O [Palbociclib] (partner 0.5 µM)
Outline: (§1)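 Five library-drug doses in √10 steps were combined with a fixed anchor-drug dose, or a single drug was given alone, by pin tool to lung cancer cell lines in 1536-well plates the day after seeding. Nuclei were stained and counted after 5 days. Relative viability is the nuclei count in treated wells over that in vehicle wells, taken as the median of duplicate plates.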

R406 + Navitoclax = compound: COc1cc(Nc2ncc(F)c(Nc3ccc4c(n3)NC(=O)C(C)(C)O4)n2)cc(OC)c1OC [R406] + CC1(C)CCC(c2ccc(Cl)cc2)=C(CN2CCN(c3ccc(C(=O)NS(=O)(=O)c4ccc(N[C@H](CCN5CCOCC5)CSc5ccccc5)c(S(=O)(=O)C(F)(F)F)c4)cc3)CC2)C1 [Navitoclax] (partner 0.5 µM)
Outline: as §1

R406 + Linsitinib = compound: COc1cc(Nc2ncc(F)c(Nc3ccc4c(n3)NC(=O)C(C)(C)O4)n2)cc(OC)c1OC [R406] + C[C@]1(O)C[C@@H](c2nc(-c3ccc4ccc(-c5ccccc5)nc4c3)c3c(N)nccn32)C1 [Linsitinib] (partner 1 µM)
Outline: as §1

R406 + Olaparib = compound: COc1cc(Nc2ncc(F)c(Nc3ccc4c(n3)NC(=O)C(C)(C)O4)n2)cc(OC)c1OC [R406] + O=C(c1cc(Cc2n[nH]c(=O)c3ccccc23)ccc1F)N1CCN(C(=O)C2CC2)CC1 [Olaparib] (partner 8 µM)
Outline: as §1

UMC-11
relative viability (R406 + Palbociclib; first compound 0.08 µM): 0.314
relative viability (R406 + Palbociclib; first compound 0.253 µM): 0.339
relative viability (R406 + Palbociclib; first compound 0.8 µM): 0.35
relative viability (R406 + Palbociclib; first compound 2.53 µM): 0.312
relative viability (R406 + Palbociclib; first compound 8 µM): 0.239
relative viability (R406 + Navitoclax; first compound 0.08 µM): 0.357
relative viability (R406 + Navitoclax; first compound 0.253 µM): 0.321
relative viability (R406 + Navitoclax; first compound 0.8 µM): 0.295
relative viability (R406 + Navitoclax; first compound 2.53 µM): 0.288
relative viability (R406 + Navitoclax; first compound 8 µM): 0.191
relative viability (R406 + Linsitinib; first compound 0.08 µM): 1.1
relative viability (R406 + Linsitinib; first compound 0.253 µM): 1.1
relative viability (R406 + Linsitinib; first compound 0.8 µM): 1.16
relative viability (R406 + Linsitinib; first compound 2.53 µM): 0.935
relative viability (R406 + Linsitinib; first compound 8 µM): 0.474
relative viability (R406 + Olaparib; first compound 0.08 µM): 0.392
relative viability (R406 + Olaparib; first compound 0.253 µM): 0.348
relative viability (R406 + Olaparib; first compound 0.8 µM): 0.342
relative viability (R406 + Olaparib; first compound 2.53 µM): 0.363
relative viability (R406 + Olaparib; first compound 8 µM): 0.199

From the supplement of paper PMC10307832
